Data taken from PubChem BioAssay (NCI).
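Tested at 5 concentrations; 48 h exposure; 96-well plates; endpoints linearly interpolated, else capped at highest concentration. Definition used: TGI = concentration required for complete inhibition of growth.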

How the values were obtained:
Test in all cases: NCI tumour cell line growth inhibition, 48 h
NCI-H226 lung = test system: NCI-H226 lung
UACC-62 melanoma = test system: UACC-62 melanoma
SNB-19 CNS = test system: SNB-19 CNS
PC-3 prostate = test system: PC-3 prostate
SK-MEL-2 melanoma = test system: SK-MEL-2 melanoma
NCI-H460 lung = test system: NCI-H460 lung
M14 melanoma = test system: M14 melanoma
OVCAR-4 ovarian = test system: OVCAR-4 ovarian
MDA-N = test system: MDA-N
MDA-MB-435 = test system: MDA-MB-435
SF-268 CNS = test system: SF-268 CNS
K-562 leukemia = test system: K-562 leukemia
KM12 colon = test system: KM12 colon
HCT-116 colon = test system: HCT-116 colon
MDA-MB-231 breast = test system: MDA-MB-231 breast
SK-MEL-5 melanoma = test system: SK-MEL-5 melanoma
NCI-H522 lung = test system: NCI-H522 lung
U251 CNS = test system: U251 CNS
LOX IMVI melanoma = test system: LOX IMVI melanoma
786-0 renal = test system: 786-0 renal
UO-31 renal = test system: UO-31 renal
SK-OV-3 ovarian = test system: SK-OV-3 ovarian
NCI/ADR-RES ovarian = test system: NCI/ADR-RES ovarian
DU-145 prostate = test system: DU-145 prostate
OVCAR-8 ovarian = test system: OVCAR-8 ovarian
COLO 205 colon = test system: COLO 205 colon
SW-620 colon = test system: SW-620 colon
MCF7 breast = test system: MCF7 breast
SF-539 CNS = test system: SF-539 CNS
NCI-H23 lung = test system: NCI-H23 lung
SNB-75 CNS = test system: SNB-75 CNS
HCC-2998 colon = test system: HCC-2998 colon
OVCAR-3 ovarian = test system: OVCAR-3 ovarian
MOLT-4 leukemia = test system: MOLT-4 leukemia
SK-MEL-28 melanoma = test system: SK-MEL-28 melanoma
RXF 393 renal = test system: RXF 393 renal
SN12C renal = test system: SN12C renal
T-47D breast = test system: T-47D breast
HOP-92 NSCLC = test system: HOP-92 NSCLC
HL-60(TB) leukemia = test system: HL-60(TB) leukemia
HCT-15 colon = test system: HCT-15 colon
HOP-62 NSCLC = test system: HOP-62 NSCLC
TK-10 renal = test system: TK-10 renal
OVCAR-5 ovarian = test system: OVCAR-5 ovarian
A498 renal = test system: A498 renal
CCRF-CEM leukemia = test system: CCRF-CEM leukemia
SF-295 CNS = test system: SF-295 CNS
HS 578T breast = test system: HS 578T breast
SR leukemia = test system: SR leukemia
RPMI-8226 leukemia = test system: RPMI-8226 leukemia
A549 NSCLC = test system: A549 NSCLC
UACC-257 melanoma = test system: UACC-257 melanoma
BT-549 breast = test system: BT-549 breast
IGROV1 ovarian = test system: IGROV1 ovarian
EKVX NSCLC = test system: EKVX NSCLC
CAKI-1 renal = test system: CAKI-1 renal
ACHN renal = test system: ACHN renal
HT29 colon = test system: HT29 colon
MALME-3M melanoma = test system: MALME-3M melanoma

## O=C1N/C(=N\N=C\c2ccccc2)C(c2ccccc2)O1 (stereo not drawn)
NCI-H226 lung
  TGI: > 100 µM
UACC-62 melanoma
  TGI: > 100 µM
SNB-19 CNS
  TGI: > 100 µM
PC-3 prostate
  TGI: > 100 µM
SK-MEL-2 melanoma
  TGI: > 100 µM
NCI-H460 lung
  TGI: > 100 µM
M14 melanoma
  TGI: > 100 µM
OVCAR-4 ovarian
  TGI: > 100 µM
MDA-N
  TGI: > 100 µM
MDA-MB-435
  TGI: > 100 µM
SF-268 CNS
  TGI: > 100 µM
K-562 leukemia
  TGI: > 100 µM
KM12 colon
  TGI: > 100 µM
HCT-116 colon
  TGI: > 100 µM
MDA-MB-231 breast
  TGI: > 100 µM
SK-MEL-5 melanoma
  TGI: > 100 µM
NCI-H522 lung
  TGI: > 100 µM
U251 CNS
  TGI: > 100 µM
LOX IMVI melanoma
  TGI: > 100 µM
786-0 renal
  TGI: > 100 µM
UO-31 renal
  TGI: 33.5 µM
SK-OV-3 ovarian
  TGI: > 100 µM
NCI/ADR-RES ovarian
  TGI: > 100 µM
DU-145 prostate
  TGI: > 100 µM
OVCAR-8 ovarian
  TGI: > 100 µM
COLO 205 colon
  TGI: > 100 µM
SW-620 colon
  TGI: > 100 µM
MCF7 breast
  TGI: > 100 µM
SF-539 CNS
  TGI: > 100 µM
NCI-H23 lung
  TGI: > 100 µM
SNB-75 CNS
  TGI: 0.0124 µM
HCC-2998 colon
  TGI: > 100 µM
OVCAR-3 ovarian
  TGI: > 100 µM
MOLT-4 leukemia
  TGI: > 100 µM
SK-MEL-28 melanoma
  TGI: > 100 µM
RXF 393 renal
  TGI: > 100 µM
SN12C renal
  TGI: > 100 µM
T-47D breast
  TGI: > 100 µM
HOP-92 NSCLC
  TGI: > 100 µM
HL-60(TB) leukemia
  TGI: > 100 µM
HCT-15 colon
  TGI: > 100 µM
HOP-62 NSCLC
  TGI: > 100 µM
TK-10 renal
  TGI: > 100 µM
OVCAR-5 ovarian
  TGI: > 100 µM
A498 renal
  TGI: > 100 µM
CCRF-CEM leukemia
  TGI: 49.4 µM
SF-295 CNS
  TGI: > 100 µM
HS 578T breast
  TGI: > 100 µM
SR leukemia
  TGI: > 100 µM
RPMI-8226 leukemia
  TGI: > 100 µM
A549 NSCLC
  TGI: > 100 µM
UACC-257 melanoma
  TGI: > 100 µM
BT-549 breast
  TGI: > 100 µM
IGROV1 ovarian
  TGI: > 100 µM
EKVX NSCLC
  TGI: > 100 µM
CAKI-1 renal
  TGI: > 100 µM
ACHN renal
  TGI: > 100 µM
HT29 colon
  TGI: > 100 µM
MALME-3M melanoma
  TGI: > 100 µM

## COc1ccc(C(O)/C(=N/N)c2nc3ccc(Cl)cc3[nH]c2=O)cc1 (stereo not drawn)
NCI-H226 lung
  TGI: > 100 µM
UACC-62 melanoma
  TGI: > 100 µM
SNB-19 CNS
  TGI: > 100 µM
PC-3 prostate
  TGI: > 100 µM
SK-MEL-2 melanoma
  TGI: > 100 µM
NCI-H460 lung
  TGI: > 100 µM
M14 melanoma
  TGI: > 100 µM
OVCAR-4 ovarian
  TGI: > 100 µM
MDA-N
  TGI: > 100 µM
MDA-MB-435
  TGI: > 100 µM
SF-268 CNS
  TGI: > 100 µM
K-562 leukemia
  TGI: > 100 µM
KM12 colon
  TGI: > 100 µM
HCT-116 colon
  TGI: > 100 µM
MDA-MB-231 breast
  TGI: > 100 µM
SK-MEL-5 melanoma
  TGI: > 100 µM
NCI-H522 lung
  TGI: > 100 µM
U251 CNS
  TGI: > 100 µM
LOX IMVI melanoma
  TGI: > 100 µM
786-0 renal
  TGI: > 100 µM
UO-31 renal
  TGI: > 100 µM
SK-OV-3 ovarian
  TGI: > 100 µM
NCI/ADR-RES ovarian
  TGI: > 100 µM
DU-145 prostate
  TGI: > 100 µM
OVCAR-8 ovarian
  TGI: > 100 µM
COLO 205 colon
  TGI: > 100 µM
SW-620 colon
  TGI: > 100 µM
MCF7 breast
  TGI: > 100 µM
SF-539 CNS
  TGI: > 100 µM
NCI-H23 lung
  TGI: > 100 µM
SNB-75 CNS
  TGI: > 100 µM
HCC-2998 colon
  TGI: > 100 µM
OVCAR-3 ovarian
  TGI: > 100 µM
MOLT-4 leukemia
  TGI: > 100 µM
SK-MEL-28 melanoma
  TGI: > 100 µM
RXF 393 renal
  TGI: > 100 µM
SN12C renal
  TGI: > 100 µM
T-47D breast
  TGI: > 100 µM
HOP-92 NSCLC
  TGI: > 100 µM
HL-60(TB) leukemia
  TGI: > 100 µM
HCT-15 colon
  TGI: > 100 µM
HOP-62 NSCLC
  TGI: > 100 µM
TK-10 renal
  TGI: > 100 µM
OVCAR-5 ovarian
  TGI: > 100 µM
A498 renal
  TGI: > 100 µM
CCRF-CEM leukemia
  TGI: > 100 µM
SF-295 CNS
  TGI: > 100 µM
HS 578T breast
  TGI: > 100 µM
SR leukemia
  TGI: > 100 µM
RPMI-8226 leukemia
  TGI: > 100 µM
A549 NSCLC
  TGI: > 100 µM
UACC-257 melanoma
  TGI: > 100 µM
BT-549 breast
  TGI: > 100 µM
IGROV1 ovarian
  TGI: > 100 µM
EKVX NSCLC
  TGI: > 100 µM
CAKI-1 renal
  TGI: > 100 µM
ACHN renal
  TGI: > 100 µM
HT29 colon
  TGI: > 100 µM
MALME-3M melanoma
  TGI: > 100 µM
